Measurements taken from patent US10610590B2, “Electrochemical plasma activated aqueous chemotherapeutics” (Symbios Technologies, Inc., priority 2016, dated 2020).

Tested on: MIA PaCa-2 cells
Test: Alamar blue cell proliferation assay, pancreatic cancer cells
Type: cell-based, human
Settings: carboplatin 0.2, 1, 2.5, 5 and 10 μg/mL, 72 h incubation
Text: All lines used were adherent human cell lines. • (i) Pancreatic cancer cell line: MIA PaCa-2 • Source: Available from ATCC (ATCC® CRL1420™) • Complete growth medium: Eagle's Minimum Essential Medium containing 5% fetal bovine serum and 5% cosmic calf serum • (ii) Human umbilical vein endothelial cells: HUVEC • Source: Available from ATCC (ATCC® PCS-100-010™) or Lonza (single or pooled donor) • Complete growth medium: EGM-2 BulletKit (Lonza) • (iii) Human foreskin fibroblasts: HFF-1 • Source: Available from ATCC (ATCC® SCRC-1041™) • Complete growth medium: Dulbecco's Modified Eagle's Medium containing 15% fetal bovine serum • (iv) Immortalized pancreas duct epithelial-like cells: hTERT-HPNE • Source: Available from ATCC (ATCC® CRL4023™) • Complete growth medium: Specialty Dulbecco's Modified Eagle's Medium composition, protocol available from ATCC • (v) Primary pancreatic stellate cells: Panc stellate • Source: Available from Applied Biological Materials (T4215) • Complete growth medium: Prigrow I containing 10% fetal bovine serum.
Each cell line was adherent in a growth flask, incubated at 37° C. and 5% CO2; de-attached cell from growth flask using Trypsin-EDTA solution (0.25% Trypsin, 0.53 mM EDTA); and counted by Trypan blue staining standard protocol. […]
A standard cell proliferation assay was used, the Alamar blue assay, to assess quantification of viable cells. […]

N.N.O=C([O-])C1(C(=O)[O-])CCC1.[Pt+2] [carboplatin]
human pancreatic cancer cell proliferation (positive control): dose dependent cell growth inhibition
